Assay results: BindingDB's records for doi:10.7270/Q2ST7N9K (Burnham Center For Chemical Genomics, 2010)

Biological target: Intestinal-type alkaline phosphatase (Homo sapiens, UniProt P09923)
Assay: human intestinal alkaline phosphatase activators, dose response, biochemical, luminescence, uHTS hits (AID 463120)

Chain of Intestinal-type alkaline phosphatase (P09923 whole entry): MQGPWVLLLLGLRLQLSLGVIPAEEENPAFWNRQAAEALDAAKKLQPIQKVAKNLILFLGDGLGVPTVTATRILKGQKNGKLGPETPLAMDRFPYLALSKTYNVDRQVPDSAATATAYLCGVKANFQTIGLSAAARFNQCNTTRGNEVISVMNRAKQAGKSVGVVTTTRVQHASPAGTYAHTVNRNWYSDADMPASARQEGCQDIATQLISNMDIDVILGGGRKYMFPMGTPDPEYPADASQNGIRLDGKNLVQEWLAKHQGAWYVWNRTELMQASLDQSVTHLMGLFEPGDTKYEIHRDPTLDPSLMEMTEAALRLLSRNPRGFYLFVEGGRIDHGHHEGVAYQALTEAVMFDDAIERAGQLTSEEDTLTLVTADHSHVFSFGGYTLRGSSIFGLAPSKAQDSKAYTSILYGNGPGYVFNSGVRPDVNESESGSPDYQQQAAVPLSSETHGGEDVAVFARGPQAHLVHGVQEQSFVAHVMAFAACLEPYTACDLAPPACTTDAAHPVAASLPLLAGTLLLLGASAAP

Row | SMILES | EC50 [µM]
1 | COc1cccc(CN=Nc2nn3cnnc3c3ccccc23)c1O | > 100
2 | Cc1c(C(=O)NN=Cc2ccc(O)cc2O)[nH][nH]c1=O | 8.3
3 | Cc1cc(Br)ccc1SCC(=O)OCC(=O)C(C#N)c1nc2ccccc2[nH]1 (stereo not drawn) [2-[(4-bromo-2-methylphenyl)thio]acetic acid [3-cyano-3-(1,3-dihydrobenzimidazol-2-ylidene)-2-oxopropyl] ester] | 13.4
4 | COc1ccc(Cc2cc(O)n(-c3ccc(C)cc3)c2O)cc1 [3-(4-Methoxy-benzyl)-1-p-tolyl-pyrrolidine-2,5-dione] | > 100
5 | C=c1[nH]n(-c2nc3ccccc3[nH]2)c(=O)c1=CN(C)C [(4E)-2-(1H-benzimidazol-2-yl)-4-(dimethylaminomethylidene)-5-methyl-pyrazol-3-one] | 12.3
6 | CCc1ccc(CN=Nc2ncnc3nc[nH]c23)cc1 [MLS000419199] | 6.62
7 | Cn1c(C(C#N)C(=O)c2ccc(Br)s2)nc2ccccc21 (stereo not drawn) [MLS001167394] | 77
8 | Cc1ccc(O)c(N=CCC(=O)c2ccc(F)cc2)c1 [MLS001183581] | > 100
9 | COc1cccc(C=NNC(=O)c2[nH][nH]c(=O)c2C)c1O [N'-[(E)-(5-methoxy-6-oxidanylidene-cyclohexa-2,4-dien-1-ylidene)methyl]-4-methyl-5-oxidanylidene-1,4-dihydropyrazole-3-carbohydrazide] | 6.53
10 | O=c1c2ccccc2nc(N=NCc2c(O)ccc3ccccc23)n1O [SMR000145705] | 13.6
11 | O=C(Nn1c(O)csc1=S)C(=O)Nn1c(O)csc1=S [SMR000349781] | 9.21
12 | O=Nc1[nH]c(=O)c(CC(=O)c2ccccc2)nc1NO [SMR000539633] | 8.21
13 | CCOC(=O)c1c(C)[nH]c(C(=O)N/N=C/C2C=C([N+](=O)[O-])C=CC2=O)c1C (stereo not drawn) [ethyl 2,4-dimethyl-5-[[[(E)-(3-nitro-6-oxocyclohexa-2,4-dien-1-ylidene)methyl]amino]carbamoyl]-1H-pyrrole-3-carboxylate] | 12.1
